Patent US20090030024A1, “THIAZOLES AS FUNGICIDES” (priority 2005, published 2009)

Assay: logP determination by retention times (calibration with alkan-2-ones)
Conditions: linear gradient 10% to 95% acetonitrile
[1] = * HPLC reversed-phase C18, 40° C., mobile phase 0.1% aqueous formic acid and acetonitrile
[2] = ** HPLC reversed-phase C18, 43° C., mobile phase 0.1% aqueous phosphoric acid and acetonitrile

| SMILES | chromatographic logP [1] | further results |
| --- | --- | --- |
| COc1cc(Nc2nccc(-c3sc(SC)nc3C)n2)cc(OC)c1 [Example 407, N-(3,5-dimethoxyphenyl)-4-[4-methyl-2-(methylthio)-1,3-thiazol-5-yl]pyrimidine-2-amine] | 3.39 | – |
| CC(=O)NCc1cccc(Nc2nccc(-c3sc(C4CC4)nc3C)n2)c1 [Example 414, N-(3-{[4-(2-cyclopropyl-4-methyl-1,3-thiazol-5-yl)pyrimidin-2-yl]amino}benzyl)acetamide] | 1.96 | – |
| CCc1nc(C)c(-c2ccnc(Nc3cccc(NC(C)=O)c3)n2)s1 [Example 415, N-(3-{[4-(2-ethyl-4-methyl-1,3-thiazol-5-yl)pyrimidin-2-yl]amino}phenyl)acetamide] | 2.05 | – |
| COc1ccc(Nc2nccc(-c3sc(C)nc3C)n2)cc1Cl [Example 416, N-(3-chloro-4-methoxyphenyl)-4-(2,4-dimethyl-1,3-thiazol-5-yl)pyrimidine-2-amine] | 2.88 | – |
| COCc1nc(C)c(-c2ccnc(Nc3ccc(OC)c(Cl)c3)n2)s1 [Example 419, N-(3-chloro-4-methoxyphenyl)-4-[2-(methoxymethyl)-4-methyl-1,3-thiazol-5-yl]pyrimidine-2-amine] | 2.91 | – |
| Cc1nc(C)c(-c2ccnc(Nc3cccc(Cl)c3)n2)s1 [Example 421, N-(3-chlorophenyl)-4-(2,4-dimethyl-1,3-thiazol-5-yl)pyrimidine-2-amine] | – | chromatographic logP [2]: 3.11 |
| Cc1nc(C2CC2)sc1-c1ccnc(Nc2cccc(Cl)c2)n1 [Example 422, N-(3-chlorophenyl)-4-(2-cyclopropyl-4-methyl-1,3-thiazol-5-yl)pyrimidine-2-amine] | 3.94 | – |
| CCc1nc(C)c(-c2ccnc(Nc3cccc(Cl)c3)n2)s1 [Example 424, N-(3-chlorophenyl)-4-(2-ethyl-4-methyl-1,3-thiazol-5-yl)pyrimidine-2-amine] | 3.72 | – |
| Cc1nc(C(C)C)sc1-c1ccnc(Nc2cccc(Cl)c2)n1 [Example 425, N-(3-chlorophenyl)-4-(2-isopropyl-4-methyl-1,3-thiazol-5-yl)pyrimidine-2-amine] | 4.25 | – |
| COCc1nc(C)c(-c2ccnc(Nc3cccc(Cl)c3)n2)s1 [Example 432, N-(3-chlorophenyl)-4-[2-(methoxymethyl)-4-methyl-1,3-thiazol-5-yl]pyrimidine-2-amine] | 3.24 | – |
| Cc1nc(C(F)(F)F)c(-c2ccnc(Nc3cccc(Cl)c3)n2)s1 [Example 433, N-(3-chlorophenyl)-4-[2-methyl-4-(trifluoromethyl)-1,3-thiazol-5-yl]pyrimidine-2-amine] | 4.03 | – |
| CNc1nc(C)c(-c2ccnc(Nc3cccc(Cl)c3)n2)s1 [Example 434, N-(3-chlorophenyl)-4-[4-methyl-2-(methylamine)-1,3-thiazol-5-yl]pyrimidine-2-amine] | – | logP [1]: 2.03* |
| CSc1nc(C)c(-c2ccnc(Nc3cccc(Cl)c3)n2)s1 [Example 435, N-(3-chlorophenyl)-4-[4-methyl-2-(methylthio)-1,3-thiazol-5-yl]pyrimidine-2-amine] | 4.08 | – |
| COCC(C)Nc1nc(C)c(-c2ccnc(Nc3cccc(Cl)c3)n2)s1 (stereo not shown) [Example 437, N-(3-chlorophenyl)-4-{2-[(2-methoxy-1-methylethyl)amino]-4-methyl-1,3-thiazol-5-yl}pyrimidine-2-amine] | 2.47 | – |
| Cc1nc(NCC2CCCO2)sc1-c1ccnc(Nc2cccc(Cl)c2)n1 (stereo not shown) [Example 443, N-(3-chlorophenyl)-4-{4-methyl-2-[(tetrahydrofuran-2-ylmethyl)amino]-1,3-thiazol-5-yl}pyrimidine-2-amine] | 2.36 | – |
| COc1cccc(Nc2nccc(-c3sc(SC)nc3C)n2)c1 [Example 449, N-(3-methoxyphenyl)-4-[4-methyl-2-(methylthio)-1,3-thiazol-5-yl]pyrimidine-2-amine] | 3.33 | – |
| COc1cccc(Nc2nccc(-c3sc(NCC4CCCO4)nc3C)n2)c1 (stereo not shown) [Example 451, N-(3-methoxyphenyl)-4-{4-methyl-2-[(tetrahydrofuran-2-ylmethyl)amino]-1,3-thiazol-5-yl}pyrimidine-2-amine] | 1.94 | – |
| CC(=O)Nc1ccc(Nc2nccc(-c3sc(C)nc3C)n2)cc1 [Example 458, N-(4-{[4-(2,4-dimethyl-1,3-thiazol-5-yl)pyrimidin-2-yl]amino}phenyl)acetamide] | 1.62 | – |
| CC(=O)Nc1ccc(Nc2nccc(-c3sc(C4CC4)nc3C)n2)cc1 [Example 459, N-(4-{[4-(2-cyclopropyl-4-methyl-1,3-thiazol-5-yl)pyrimidin-2-yl]amino}phenyl)acetamide] | 2 | – |
| Cc1nc(C)c(-c2ccnc(Nc3ccc(Cl)cc3)n2)s1 [Example 462, N-(4-chlorophenyl)-4-(2,4-dimethyl-1,3-thiazol-5-yl)pyrimidine-2-amine] | – | chromatographic logP [2]: 3.09 |

| SMILES | chromatographic logP [1] | further results |
| --- | --- | --- |
| CCc1nc(C)c(-c2ccnc(Nc3ccc(Cl)cc3)n2)s1 [Example 463, N-(4-chlorophenyl)-4-(2-ethyl-4-methyl-1,3-thiazol-5-yl)pyrimidine-2-amine] | 3.72 | – |
| Cc1nc(C(C)C)sc1-c1ccnc(Nc2ccc(Cl)cc2)n1 [Example 464, N-(4-chlorophenyl)-4-(2-isopropyl-4-methyl-1,3-thiazol-5-yl)pyrimidine-2-amine] | 4.25 | – |
| COCc1nc(C)c(-c2ccnc(Nc3ccc(Cl)cc3)n2)s1 [Example 465, N-(4-chlorophenyl)-4-[2-(methoxymethyl)-4-methyl-1,3-thiazol-5-yl]pyrimidine-2-amine] | 3.29 | – |
| COCc1nc(C)c(-c2ccnc(Nc3ccc(F)c(C)c3)n2)s1 [Example 478, N-(4-fluoro-3-methylphenyl)-4-[2-(methoxymethyl)-4-methyl-1,3-thiazol-5-yl]pyrimidine-2-amine] | 3.14 | – |
| CSc1nc(C)c(-c2ccnc(Nc3ccc(F)c(C)c3)n2)s1 [Example 481, N-(4-fluoro-3-methylphenyl)-4-[4-methyl-2-(methylthio)-1,3-thiazol-5-yl]pyrimidine-2-amine] | 3.89 | – |
| COCC(C)Nc1nc(C)c(-c2ccnc(Nc3ccc(F)c(C)c3)n2)s1 (stereo not shown) [Example 482, N-(4-fluoro-3-methylphenyl)-4-{2-[(2-methoxy-1-methylethyl)amino]-4-methyl-1,3-thiazol-5-yl}pyrimidine-2-amine] | 2.19 | – |
| Cc1cc(Nc2nccc(-c3sc(NCC4CCCO4)nc3C)n2)ccc1F (stereo not shown) [Example 483, N-(4-fluoro-3-methylphenyl)-4-{4-methyl-2-[(tetrahydrofuran-2-ylmethyl)amino]-1,3-thiazol-5-yl}pyrimidine-2-amine] | 2.03 | – |
| Cc1nc(C(C)C)sc1-c1ccnc(Nc2ccc(F)cc2)n1 [Example 485, N-(4-fluorophenyl)-4-(2-isopropyl-4-methyl-1,3-thiazol-5-yl)pyrimidine-2-amine] | 3.58 | – |
| COCc1nc(C)c(-c2ccnc(Nc3ccc(F)cc3)n2)s1 [Example 486, N-(4-fluorophenyl)-4-[2-(methoxymethyl)-4-methyl-1,3-thiazol-5-yl]pyrimidine-2-amine] | 2.8 | – |
| COCC(C)Nc1nc(C)c(-c2ccnc(Nc3ccc(F)cc3)n2)s1 (stereo not shown) [Example 488, N-(4-fluorophenyl)-4-{2-[(2-methoxy-1-methylethyl)amino]-4-methyl-1,3-thiazol-5-yl}pyrimidine-2-amine] | 2 | – |
| Cc1nc(NCC2CCCO2)sc1-c1ccnc(Nc2ccc(F)cc2)n1 (stereo not shown) [Example 489, N-(4-fluorophenyl)-4-{4-methyl-2-[(tetrahydrofuran-2-ylmethyl)amino]-1,3-thiazol-5-yl}pyrimidine-2-amine] | 2.1 | – |
| CC(=O)Nc1nc(C)c(-c2ccnc(Nc3cccc(Cl)c3)n2)s1 [Example 515, N-(5-{2-[(3-chlorophenyl)amino]pyrimidin-4-yl}-4-methyl-1,3-thiazol-2-yl)acetamide] | – | chromatographic logP [2]: 2.49 |
| COc1ccc(Nc2nccc(-c3sc(SC)nc3C)n2)cn1 [Example 522, N-(6-methoxypyridin-3-yl)-4-[4-methyl-2-(methylthio)-1,3-thiazol-5-yl]pyrimidine-2-amine] | 2.67 | – |
| COc1ccc(Nc2nccc(-c3sc(NCC4CCCO4)nc3C)n2)cn1 (stereo not shown) [Example 523, N-(6-methoxypyridin-3-yl)-4-{4-methyl-2-[(tetrahydrofuran-2-ylmethyl)amino]-1,3-thiazol-5-yl}pyrimidine-2-amine] | 1.57 | – |
| CSc1nc(C)c(-c2ccnc(Nc3ccc(N(C)C)cc3)n2)s1 [Example 524, N,N-dimethyl-N′-{4-[4-methyl-2-(methylthio)-1,3-thiazol-5-yl]pyrimidin-2-yl}benzene-1,4-diamine] | 1.75 | – |
| Cc1nc(C2CC2)sc1-c1ccnc(Nc2cccc(CN)c2)n1 [Example 537, N-[3-(aminomethyl)phenyl]-4-(2-cyclopropyl-4-methyl-1,3-thiazol-5-yl)pyrimidine-2-amine] | 1.45 | – |
| COCc1nc(C)c(-c2ccnc(Nc3ccc(NC(C)=O)cc3)n2)s1 [Example 544, N-[4-({4-[2-(methoxymethyl)-4-methyl-1,3-thiazol-5-yl]pyrimidin-2-yl}amino)phenyl]acetamide] | 1.8 | – |
| Cc1nc(C)c(-c2ccnc(Nc3cccc(N(C)C)c3)n2)s1 [Example 551, N′-[4-(2,4-dimethyl-1,3-thiazol-5-yl)pyrimidin-2-yl]-N,N-dimethylbenzene-1,3-diamine] | 1.75 | – |
| Cc1nc(C)c(-c2ccnc(Nc3ccc(N(C)C)cc3)n2)s1 [Example 552, N′-[4-(2,4-dimethyl-1,3-thiazol-5-yl)pyrimidin-2-yl]-N,N-dimethylbenzene-1,4-diamine] | 1.41 | – |
| Cc1nc(C2CCCCC2)sc1-c1ccnc(Nc2ccc(N(C)C)cc2)n1 [Example 553, N′-[4-(2-cyclohexyl-4-methyl-1,3-thiazol-5-yl)pyrimidin-2-yl]-N,N-dimethylbenzene-1,4-diamine] | 2.38 | – |
